Some test systems named below: DU-145 prostate; BT-549 breast; SNB-75 CNS; MCF7 breast; K-562 leukemia; SK-MEL-28 melanoma; SF-539 CNS; HCC-2998 colon; OVCAR-4 ovarian; SK-MEL-2 melanoma.
Holding throughout (assay): inhibition of tumour cell growth, NCI panel, 48 h

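Cells were grown in 96-well plates and exposed to each compound for 48 hours at five concentrations; endpoints were interpolated linearly between bracketing concentrations, or set to the highest concentration if not reached. GI50 = concentration required for 50% inhibition of growth. TGI: concentration producing complete growth inhibition.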

In the case of `CCCCCCc1cc2cc(-c3csc(/C=C/c4ccccc4)n3)c(=O)oc2cc1O`, the GI50 in the assay with DU-145 prostate was 12.8 µM; in the assay with BT-549 breast it was 35.6 µM; with SNB-75 CNS, 11.5 µM; in the assay with MCF7 breast it was 4.62 µM; with K-562 leukemia it was 6.13 µM; in the assay on SK-MEL-28 melanoma, 10.6 µM. Also, the GI50 is 10 µM in the assay with SF-539 CNS, 6.41 µM in the assay on HCC-2998 colon, 3.56 µM with OVCAR-4 ovarian and 18.1 µM in the assay with SK-MEL-2 melanoma. The TGI with DU-145 prostate was 44.7 µM; with BT-549 breast, > 100 µM; in the assay on SNB-75 CNS, 26.5 µM; with MCF7 breast, 44 µM; with K-562 leukemia, 80.3 µM; in the assay on SK-MEL-28 melanoma, 24.9 µM. Further, the TGI in the assay on SF-539 CNS turned out to be 23 µM; in the assay on HCC-2998 colon it was 29.3 µM; in the assay on OVCAR-4 ovarian it was 13.7 µM; with SK-MEL-2 melanoma, 41.1 µM.

Turning to `COc1ccc(/C=C/C(=O)c2ccc(Nc3nc(Nc4ccc(F)cc4)nc(Nc4ccc(Cl)cc4)n3)cc2)cc1`, the GI50 in the assay on DU-145 prostate was > 100 µM; with BT-549 breast it was > 100 µM; in the assay with SNB-75 CNS, 16.2 µM; in the assay on MCF7 breast, 0.292 µM; with K-562 leukemia, 15.4 µM; with SK-MEL-28 melanoma, > 100 µM. Besides, the GI50 in the assay with SF-539 CNS is 2.23 µM; in the assay with HCC-2998 colon, > 100 µM; with OVCAR-4 ovarian it was > 100 µM; in the assay with SK-MEL-2 melanoma, 41.3 µM. For the same molecule, the TGI in the assay on DU-145 prostate is > 100 µM; with BT-549 breast, > 100 µM; in the assay on SNB-75 CNS, 45.8 µM; in the assay on MCF7 breast it was 31.7 µM; with K-562 leukemia it was > 100 µM; in the assay with SK-MEL-28 melanoma, > 100 µM. For the same molecule, the TGI in the assay with SF-539 CNS was 19 µM; in the assay on HCC-2998 colon it was > 100 µM; in the assay on OVCAR-4 ovarian, > 100 µM; with SK-MEL-2 melanoma, > 100 µM.

Turning to `CCOc1cc(/C=C/C(=O)C(C(=O)/C=C/c2ccc(OC(=O)CNc3nnc(C)s3)c(OCC)c2)C(=O)CNc2nnc(C)s2)ccc1OC(=O)CNc1nnc(C)s1`, the GI50 with DU-145 prostate was 1.72 µM; in the assay with BT-549 breast, 1.98 µM; in the assay on SNB-75 CNS, 2.93 µM; in the assay on MCF7 breast, 0.317 µM; in the assay on K-562 leukemia, 0.352 µM; in the assay with SK-MEL-28 melanoma it was 1.45 µM. The GI50 with SF-539 CNS is 1.17 µM; in the assay on HCC-2998 colon, 1.69 µM; with OVCAR-4 ovarian, 3.91 µM; with SK-MEL-2 melanoma it was 2.02 µM. The TGI was 4.18 µM with DU-145 prostate; 5.33 µM with BT-549 breast; 9.77 µM in the assay with SNB-75 CNS; 2.28 µM with MCF7 breast; > 100 µM with K-562 leukemia; 2.92 µM with SK-MEL-28 melanoma. The TGI with SF-539 CNS is 3.42 µM; with HCC-2998 colon, 3.33 µM; in the assay on OVCAR-4 ovarian, 45.1 µM; with SK-MEL-2 melanoma, 5 µM.

In the case of `FC(F)(F)c1ccc(-c2ncc(-c3ccc(C(F)(F)F)cc3)c(NCc3cc(C(F)(F)F)cc(C(F)(F)F)c3)n2)cc1`, the GI50 with DU-145 prostate is 5.25 µM; in the assay with BT-549 breast, 7.91 µM; with SNB-75 CNS, 4.17 µM; in the assay with MCF7 breast it was 3.94 µM; with K-562 leukemia, 3.97 µM; with SK-MEL-28 melanoma, 5.85 µM. The GI50 is 7.71 µM with SF-539 CNS, 5.76 µM with HCC-2998 colon, 4.11 µM in the assay on OVCAR-4 ovarian and 2.84 µM in the assay on SK-MEL-2 melanoma. In addition, the TGI is > 100 µM in the assay on DU-145 prostate; > 100 µM in the assay with BT-549 breast; 73 µM in the assay on SNB-75 CNS; > 100 µM with MCF7 breast; > 100 µM in the assay on K-562 leukemia; > 100 µM with SK-MEL-28 melanoma. In addition, the TGI with SF-539 CNS was > 100 µM; with HCC-2998 colon it was 46.7 µM; in the assay with OVCAR-4 ovarian it was > 100 µM; in the assay with SK-MEL-2 melanoma, 8.93 µM.

For the molecule `FC(F)(F)c1cc(-c2ncn(/C=C\c3nnco3)n2)cc(C(F)(F)F)c1`, the GI50 in the assay on DU-145 prostate is 0.315 µM; with BT-549 breast, 0.0719 µM; with SNB-75 CNS, 0.106 µM; with MCF7 breast, 0.0414 µM; in the assay with K-562 leukemia, 0.06 µM; with SK-MEL-28 melanoma, 0.125 µM. The GI50 in the assay on SF-539 CNS is 0.0197 µM; in the assay on HCC-2998 colon, 0.317 µM; in the assay with OVCAR-4 ovarian, 0.0442 µM; in the assay on SK-MEL-2 melanoma it was 0.031 µM. The TGI in the assay with DU-145 prostate was 22 µM; in the assay with BT-549 breast, 2.44 µM; in the assay on SNB-75 CNS it was 3.65 µM; in the assay on MCF7 breast, 2.94 µM; in the assay on K-562 leukemia, > 42.2 µM; in the assay with SK-MEL-28 melanoma, 49.3 µM. The TGI in the assay with SF-539 CNS amounted to 0.0744 µM; in the assay on HCC-2998 colon it was 11.1 µM; in the assay with SK-MEL-2 melanoma it was 0.251 µM.

As for `CCCCCCCC(CC(=O)NC(CO)C(=O)NC(CO)CC(C)C)OC(=O)CC(CCCCCCC)OC(=O)CC(CCCCCCC)OC1OC(C)C(O)C(OC2OC(C)C(O)C(O)C2O)C1O` (configuration not stated), the TGI in the assay with DU-145 prostate is 25.3 µM; with BT-549 breast it was 28.8 µM; with SNB-75 CNS, 24.9 µM; in the assay with MCF7 breast, > 52.3 µM; in the assay with K-562 leukemia, 25.7 µM; in the assay on SK-MEL-28 melanoma, 21.2 µM. Also, the TGI with SF-539 CNS was determined as 24.7 µM; in the assay on HCC-2998 colon, 43.1 µM; in the assay on OVCAR-4 ovarian, 28 µM; in the assay on SK-MEL-2 melanoma, 13.3 µM.

For the molecule `O=C(c1cccs1)c1nc2cc(Cl)ccc2[n+]([O-])c1C(F)(F)F`, the GI50 in the assay on DU-145 prostate was > 100 µM; with BT-549 breast, > 100 µM; with SNB-75 CNS, 57.3 µM; with MCF7 breast, 52.2 µM; with K-562 leukemia it was > 100 µM; in the assay on SK-MEL-28 melanoma, > 100 µM. Further, the GI50 was > 100 µM in the assay on SF-539 CNS, 87.4 µM in the assay with HCC-2998 colon, > 100 µM in the assay with OVCAR-4 ovarian and 51.2 µM in the assay with SK-MEL-2 melanoma. The TGI in the assay with DU-145 prostate, in the assay with BT-549 breast, with SNB-75 CNS, in the assay with MCF7 breast, in the assay on K-562 leukemia and with SK-MEL-28 melanoma was > 100 µM each time. In addition, the TGI in the assay on SF-539 CNS, with HCC-2998 colon, with OVCAR-4 ovarian and in the assay on SK-MEL-2 melanoma was > 100 µM throughout.

For the molecule `Cc1cc(C(O)(c2ccc(Nc3ccccc3)cc2)c2ccc(Nc3ccc(S(=O)(=O)O)cc3)cc2)ccc1N` (configuration not stated), the GI50 was 1.32 µM with DU-145 prostate; 1.84 µM in the assay with BT-549 breast; 1.29 µM with SNB-75 CNS; 0.478 µM with MCF7 breast; 0.911 µM in the assay on K-562 leukemia; 1.64 µM in the assay on SF-539 CNS. The GI50 was 1.23 µM with HCC-2998 colon, 1.31 µM with OVCAR-4 ovarian and 1.55 µM in the assay on SK-MEL-2 melanoma. Further, the TGI in the assay with DU-145 prostate was 2.67 µM; in the assay on BT-549 breast, 5.61 µM; with SNB-75 CNS it was 30.9 µM; in the assay with MCF7 breast, 2.67 µM; in the assay on K-562 leukemia it was > 100 µM; in the assay on SF-539 CNS, 3.32 µM. The TGI is 2.58 µM with HCC-2998 colon, 3.39 µM in the assay on OVCAR-4 ovarian and 4.68 µM in the assay with SK-MEL-2 melanoma.

(Values after PubChem BioAssay (NCI).)
